US9902728B2, “Pyrrolo and pyrazolopyrimidines as ubiquitin-specific protease 7 inhibitors” (Forma Therapeutics, Inc., priority 2014, dated 2018)

What follows are compounds tested against T1, USP7 (Homo sapiens, UniProt Q93009) (assay: USP7 Assay A (Ubitquin-Rhodamine 110 Assay)). Conditions: USP7 activity in USP7 assay A and B (table does not say which assay per compound); read-out: USP7_IC50.
T1 construct: USP7, construct USP7 (208-1102) 6*His, Viva Biotech; 6xHis (C); purchased Viva Biotech
T1 sequence (Q93009 208-1102): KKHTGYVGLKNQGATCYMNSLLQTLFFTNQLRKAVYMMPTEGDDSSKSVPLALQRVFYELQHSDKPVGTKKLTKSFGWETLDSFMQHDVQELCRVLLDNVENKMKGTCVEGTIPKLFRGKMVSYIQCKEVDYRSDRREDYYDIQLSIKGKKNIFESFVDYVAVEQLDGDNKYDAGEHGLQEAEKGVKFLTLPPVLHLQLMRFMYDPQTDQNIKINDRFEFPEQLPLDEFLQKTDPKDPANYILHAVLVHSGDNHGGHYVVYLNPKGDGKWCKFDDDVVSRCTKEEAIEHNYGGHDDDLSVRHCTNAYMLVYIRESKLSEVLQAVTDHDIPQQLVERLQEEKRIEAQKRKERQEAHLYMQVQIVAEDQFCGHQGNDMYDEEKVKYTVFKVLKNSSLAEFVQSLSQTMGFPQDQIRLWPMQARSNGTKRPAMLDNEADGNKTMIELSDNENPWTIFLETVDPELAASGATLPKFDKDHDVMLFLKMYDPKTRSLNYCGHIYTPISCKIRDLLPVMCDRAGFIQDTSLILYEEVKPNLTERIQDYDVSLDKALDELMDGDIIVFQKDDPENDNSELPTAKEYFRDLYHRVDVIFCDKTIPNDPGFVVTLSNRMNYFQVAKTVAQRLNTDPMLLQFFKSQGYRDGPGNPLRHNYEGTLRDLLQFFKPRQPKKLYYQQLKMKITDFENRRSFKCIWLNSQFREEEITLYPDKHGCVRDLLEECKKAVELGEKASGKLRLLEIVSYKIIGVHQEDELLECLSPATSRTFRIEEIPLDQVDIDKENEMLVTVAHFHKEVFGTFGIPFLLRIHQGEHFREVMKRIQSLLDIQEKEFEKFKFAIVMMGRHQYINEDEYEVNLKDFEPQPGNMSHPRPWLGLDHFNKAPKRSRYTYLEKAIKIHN
Type: biochemical
In short: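 Ub-Rh110 cleavage in 20 mM Tris-HCl pH 8.0 with 1 mM GSH, 0.03% BGG, 0.01% Triton X-100; compound preincubated with enzyme 30 min before substrate.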
In the case of `O=C(C1CCC(Oc2ccc(F)cn2)CC1)N1CCC(O)(Cn2cnc3c(cnn3-c3ccccc3)c2=O)CC1` (stereo not shown) [Compound I-743], the IC50 is reported as 1000 to 10000 nM. Work on `Cn1ncc2c1CC(C(=O)N1CCC(O)(Cn3cnc4c(cnn4-c4ccc(F)cc4)c3=O)CC1)CC2` (stereo not shown) [Compound I-725] yielded an IC50 of 1000 to 10000 nM. In the case of `Cc1ccc(-c2ccc(-n3ncc4c(=O)n(CC5(O)CCN(C(=O)C6CC6)CC5)cnc43)cc2)nc1` [Compound I-1726], the IC50 is reported as 200 to 1000 nM. For `O=C(C[C@H](C(F)F)n1ccc(F)n1)N1CCC(O)(Cn2cnc3c(cnn3-c3ccc(C(F)(F)F)cc3)c2=O)CC1` [Compound I-1036], the IC50 was < 200 nM. `Cn1ccc2c(=O)n(CC3(O)CCN(C(=O)CC(C(F)F)n4ccc(F)n4)CC3)cnc21` (single isomer, unassigned) [Compound I-1695] was tested, and the IC50 was < 200 nM. `O=C(C1CC(Nc2ccc(F)cn2)C1)N1CCC(O)(Cn2cnc3c(cnn3-c3ccc(F)cc3)c2=O)CC1` (stereo not shown) [Compound I-1033] was tested, and the IC50 was 1000 to 10000 nM. `O=C(C[C@H](C(F)F)n1cccn1)N1CCC(O)(Cn2cnc3c(cnn3-c3ccc(-c4ccccc4)cc3)c2=O)CC1` [Compound I-645] was tested, and the IC50 was 200 to 1000 nM. Compound `CC1(C(=O)N2CCC(O)(Cn3cnc4c(cnn4-c4ccc(-n5cccn5)cc4)c3=O)CC2)CC1` [Compound I-781] has an IC50 of 200 to 1000 nM. `CC(=O)N1CC2CC1CN2c1cccc(-n2ncc3c(=O)n(CC4(O)CCN(C(=O)C5(C)CC5)CC4)cnc32)c1` (stereo not shown) [Compound I-1748] was tested, and the IC50 was 200 to 1000 nM. In the case of `CN1CCC2(CC1)CCN(c1ccc(-n3ncc4c(=O)n(CC5(O)CCN(C(=O)c6ccc(F)cc6)CC5)cnc43)cc1)CC2` [Compound I-1621], the IC50 is reported as < 200 nM. `Cn1ccc(NC2CCC(C(=O)N3CCC(O)(Cn4cnc5c(cnn5-c5ccc(F)cc5)c4=O)CC3)CC2)n1` (stereo not shown) [Compound I-765] gave an IC50 of 1000 to 10000 nM. For `CC1(C(=O)N2CCC(O)(Cn3cnc4c(cnn4-c4cccc(OCC5CC(F)(F)C5)c4)c3=O)CC2)CC1` [Compound I-1046, 1-(3-((3,3-difluorocyclobutyl)methoxy)phenyl)-5-((4-hydroxy-1-(1-methylcyclopropane-1-carbonyl)piperidin-4-yl)methyl)-1,5-dihydro-4H-pyrazolo[3,4-d]pyrimidin-4-one], the IC50 was 200 to 1000 nM. Work on `O=C(c1ccnn1Cc1ccccc1)N1CCC(O)(Cn2cnc3c(cnn3-c3ccc(F)cc3)c2=O)CC1` [Compound I-541] yielded an IC50 of 200 to 1000 nM. `O=C(C1CCC(Oc2cccnc2)CC1)N1CCC(O)(Cn2cnc3c(cnn3-c3ccc(F)cc3)c2=O)CC1` (stereo not shown) [Compound I-749] was tested, and the IC50 was < 200 nM. Compound `O=C(C[C@H](C(F)F)n1ccc(F)n1)N1CCC(O)(Cn2cnc3c(cnn3-c3ccc(N4CC5CC5C4)cc3)c2=O)CC1` (stereo partly shown) [Compound I-785] has an IC50 of 200 to 1000 nM. `O=C(c1nnc(C2CC2)o1)N1CCC(O)(Cn2cnc3c(cnn3-c3ccc(Cl)cc3)c2=O)CC1` [Compound I-1091] gave an IC50 of 1000 to 10000 nM. Work on `CN1CCN(c2cccc(-n3ccc4c(=O)n(CC5(O)CCN(C(=O)C[C@H](C(F)F)n6cccn6)CC5)cnc43)c2)CC1` [Compound I-792] yielded an IC50 of 200 to 1000 nM. Compound `Cn1cc(C(=O)N2CCC(O)(Cn3cnc4c(cnn4-c4ccc(Cl)cc4)c3=O)CC2)cn1` [Compound I-772] has an IC50 of 200 to 1000 nM. Compound `O=C(c1cnc(N2CCOCC2)o1)N1CCC(O)(Cn2cnc3c(cnn3-c3ccc(-c4ccccc4)cc3)c2=O)CC1` [Compound I-643] has an IC50 of 200 to 1000 nM. Compound `CC1(C(=O)N2CCC(O)(Cn3cnc4c(cnn4-c4ccc(NC5CCC(F)(F)CC5)cc4)c3=O)CC2)CC1` [Compound I-786] has an IC50 of 200 to 1000 nM. `O=C(C1CCC(Oc2cccnc2F)CC1)N1CCC(O)(Cn2cnc3c(cnn3-c3ccccc3)c2=O)CC1` (stereo not shown) [Compound I-1017] showed an IC50 of 200 to 1000 nM. `CC(=O)N1C[C@@H]2C[C@H]1CN2c1cccc(-n2ncc3c(=O)n(CC4(O)CCN(C(=O)C5(C)CC5)CC4)cnc32)c1` [Compound I-1702] showed an IC50 of 200 to 1000 nM. `O=C(C1CCC(Nc2cccc(F)n2)CC1)N1CCC(O)(Cn2cnc3c(cnn3-c3ccc(F)cc3)c2=O)CC1` (stereo not shown) [Compound I-1024] was tested, and the IC50 was < 200 nM. Work on `O=C(N1CCC(O)(Cn2cnc3c(cnn3-c3ccc(F)cc3)c2=O)CC1)N1CC[C@H]1Cc1ccccc1` [Compound I-760] yielded an IC50 of 1000 to 10000 nM. With `Cc1ccc(-n2ncc3c(=O)n(CC4(O)CCN(C(=O)C[C@@H](C(F)F)n5ccc(F)n5)CC4)cnc32)cc1` [Compound I-797] the IC50 was 1000 to 10000 nM. In the case of `Cc1nc2n(n1)CCN(c1ccc(-n3ncc4c(=O)n(CC5(O)CCN(C(=O)c6ccc(F)cc6)CC5)cnc43)cc1)C2` [Compound I-1176], the IC50 is reported as 1000 to 10000 nM. In the case of `O=C(C1CCC(Oc2ccccn2)CC1)N1CCC(O)(Cn2cnc3c(ccn3-c3ccc(F)cc3)c2=O)CC1` (stereo not shown) [Compound I-1038], the IC50 is reported as < 200 nM. For `O=C(C[C@@H](C(F)F)n1ccc(F)n1)N1CCC(O)(Cn2cnc3c(cnn3-c3ccc(F)cc3)c2=O)CC1` [Compound I-542], the IC50 was < 200 nM.

Same assay, conditions: USP7 assay A and B (table does not say which assay per compound); Ubiquitin-Rhodamine 110 substrate; read-out: USP7_IC50
Compound `Cn1ncc2c(=O)n(CC3(O)CCN(C(=O)c4ccc(-c5ccc(C(=O)N6CCCCC6)cc5)cc4Cl)CC3)cnc21` [Compound I-55] has an IC50 of 1000 to 10000 nM.

Same assay, conditions: USP7 assay A and B (table does not say which assay per compound); read-out: USP7_IC50
For `C=CS(=O)(=O)N[C@H](Cc1ccccc1)C(=O)N1CCC(O)(Cn2cnc3c(cnn3-c3ccccc3)c2=O)CC1` [Compound I-814], the IC50 was 200 to 1000 nM. With `C[C@H](CC(=O)N1CCC(O)(Cn2cnc3c(cnn3-c3ccccc3)c2=O)CC1)c1ccccc1` [Compound I-72] the IC50 was < 200 nM. Work on `O=C(c1ccc(Oc2ncccn2)cc1)N1CCC(O)(Cn2cnc3c(cnn3-c3ccc(Cl)cc3)c2=O)CC1` [Compound I-1528] yielded an IC50 of 1000 to 10000 nM. For `Cc1ccc(-n2ncc3c(=O)n(CC4(O)CCN(C(=O)C[C@@H](C)c5ccccc5)CC4)cnc32)cc1` [Compound I-68], the IC50 was < 200 nM. Compound `Cc1ccc(-n2ncc3c(=O)n(CC4(O)CCN(C(=O)c5ccc(OC(F)F)cc5)CC4)cnc32)cc1` [Compound I-1058] has an IC50 of 200 to 1000 nM. `CNC(=O)N1CCC(O)(Cn2cnc3c(cnn3-c3ccc(-c4ccccc4)cc3)c2=O)CC1` [Compound I-425] was tested, and the IC50 was 1000 to 10000 nM. For `NCc1cccc(C(=O)N2CCC(O)(Cn3cnc4c(cnn4-c4ccccc4)c3=O)CC2)c1` [Compound I-20], the IC50 was 1000 to 10000 nM. With `O=C(C[C@@H](c1ccccc1)C(F)(F)F)N1CCC(O)(Cn2cnc3c(cnn3-c3ccccc3)c2=O)CC1` [Compound I-142] the IC50 was < 200 nM. `Cc1ccc(-n2ncc3c(=O)n(CC4(O)CCN(C(=O)c5ccc(OC6CCOCC6)cc5)CC4)cnc32)cc1` [Compound I-1144] gave an IC50 of 1000 to 10000 nM. For `CN(C)C(=O)N1CCC(O)(Cn2cnc3c(cnn3-c3ccc(NC4CC(C)(C)C4)cc3)c2=O)CC1` [Compound I-1544], the IC50 was 1000 to 10000 nM. Work on `O=C(C1CC1)N1CCC(O)(Cn2cnc3c(cnn3-c3ccc(NCCN4CCCCC4)cc3)c2=O)CC1` [Compound I-1146] yielded an IC50 of 200 to 1000 nM. `O=C(c1ccnc(Cl)c1)N1CCC(O)(Cn2cnc3c(cnn3-c3ccccc3)c2=O)CC1` [Compound I-287] was tested, and the IC50 was 1000 to 10000 nM. Work on `CNC(=O)c1ccc(C(=O)N2CCC(O)(Cn3cnc4c(cnn4-c4ccccc4)c3=O)CC2)cc1` [Compound I-184] yielded an IC50 of 200 to 1000 nM. For `Nc1cc(-n2ncc3c(=O)n(CC4(O)CCN(C(=O)c5ccc(F)cc5)CC4)cnc32)ccc1F` [Compound I-635], the IC50 was 1000 to 10000 nM. `CN1CCN(c2cc(-n3ncc4c(=O)n(CC5(O)CCN(C(=O)c6ccccc6)CC5)cnc43)ccc2F)CC1` [Compound I-634] showed an IC50 of 1000 to 10000 nM. For `Cc1ccc(-n2ncc3c(=O)n(CC4(O)CCN(C(=O)c5ccc(Oc6ccccc6)cc5)CC4)cnc32)cc1` [Compound I-69], the IC50 was 200 to 1000 nM. In the case of `O=C(N1CCC(O)(Cn2cnc3c(cnn3-c3ccccc3)c2=O)CC1)C12CC(C1)C2` [Compound I-289], the IC50 is reported as 200 to 1000 nM. With `O=C(C1CC1)N1CCC(O)(Cn2cnc3c(cnn3-c3cccc(NS(=O)(=O)c4cccc(Cl)c4)c3)c2=O)CC1` [Compound I-1406] the IC50 was 1000 to 10000 nM. With `O=C(c1cccn1Cc1ccccc1)N1CCC(O)(Cn2cnc3c(cnn3-c3ccccc3)c2=O)CC1` [Compound I-150] the IC50 was < 200 nM. With `O=C(c1cc(Cl)ccc1Cl)N1CCC(O)(Cn2cnc3c(cnn3-c3ccccc3)c2=O)CC1` [Compound I-223] the IC50 was 200 to 1000 nM. Work on `O=C(c1ccc(F)cc1)N1CCC(O)(Cn2cnc3c(cnn3-c3cccc(OCC4CCOCC4)c3)c2=O)CC1` [Compound I-1325] yielded an IC50 of 1000 to 10000 nM. For `CNC(=O)N1CCC(O)(Cn2cnc3c(cnn3-c3ccc(F)cc3)c2=O)CC1` [Compound I-284, 4-{[1-(4-fluorophenyl)-4-oxo-1H,4H,5H-pyrazolo[3,4-d]pyrimidin-5-yl]methyl}-4-hydroxy-N-methylpiperidine-1-carboxamide], the IC50 was 1000 to 10000 nM. With `CN(C(=O)N1CCC(O)(Cn2cnc3c(cnn3C)c2=O)CC1)c1ccc(-c2ccccc2)cc1` [Compound I-4, N-([1,1′-biphenyl]-4-yl)-4-hydroxy-N-methyl-4-((1-methyl-4-oxo-1,4-dihydro-5H-pyrazolo[3,4-d]pyrimidin-5-yl)methyl)piperidine-1-carboxamide] the IC50 was > 10000 nM. Compound `O=C(C1CC1)N1CCC(O)(Cn2cnc3c(cnn3-c3ccc(C(F)(F)F)cc3)c2=O)CC1` [Compound I-28] has an IC50 of 1000 to 10000 nM. Work on `O=C(c1ccc(CN2CCCC2)cc1)N1CCC(O)(Cn2cnc3c(cnn3-c3ccc(F)cc3)c2=O)CC1` [Compound I-529] yielded an IC50 of 1000 to 10000 nM. With `COc1cc(C(=O)N2CCC(O)(Cn3cnc4c(cnn4-c4ccccc4)c3=O)CC2)ccc1Cl` [Compound I-226] the IC50 was 1000 to 10000 nM. Work on `CC(CC(=O)N1CCC(O)(Cn2cnc3c(cnn3-c3ccc(F)cc3)c2=O)CC1)n1cccn1` (stereo not shown) [Compound I-513] yielded an IC50 of 200 to 1000 nM. In the case of `O=C(c1ccc(C2(O)CC2)cc1)N1CCC(O)(Cn2cnc3c(cnn3-c3ccccc3)c2=O)CC1` [Compound I-467], the IC50 is reported as 1000 to 10000 nM. In the case of `Cn1ccc(Oc2ccc(C(=O)N3CCC(O)(Cn4cnc5c(cnn5-c5ccc(F)cc5)c4=O)CC3)cc2)n1` [Compound I-719], the IC50 is reported as 1000 to 10000 nM. With `CN(Cc1ccccc1)c1ccc(C(=O)N2CCC(O)(Cn3cnc4c(cnn4C)c3=O)CC2)cc1` [Compound I-119] the IC50 was 200 to 1000 nM. `O=C(c1ccc(Cl)c(Cl)c1)N1CCC(O)(Cn2cnc3c(cnn3-c3ccccc3)c2=O)CC1` [Compound I-213] gave an IC50 of 1000 to 10000 nM. With `C[C@H](CC(=O)N1CCC(O)(Cn2cnc3c(cnn3-c3ccc(F)cc3)c2=O)CC1)c1ccccc1` [Compound I-65] the IC50 was < 200 nM.
